According to ChEMBL document CHEMBL5584263, “Novel inhibitor N-cyclopropyl-4-((4-((4-(trifluoromethyl)phenyl)sulfonyl)piperazin-1-yl)methyl)benzamide attenuates RANKL-mediated osteoclast differentiation in vitro” (Bioorg Med Chem Lett, 2024):
Calls of active or inactive are those of the source. The calls are words filed in the database; no cut-off is given here.

Tests used:
[1] = test system: BMMC; assay: Inhibition of osteoclastogenesis in mouse BMMC at 2 uM by TRAP staining based assay; assay type: functional
[2] = Partition coefficient, logP of compound; assay type: physicochemical; details: octanol/water
[3] = test system: BMMC; assay: Inhibition of osteoclastogenesis in mouse BMMC by TRAP staining based assay; assay type: functional, cell-based
[4] = test system: BMMC; assay: Inhibition of osteoclastogenesis in mouse BMMC at 0.5 uM by TRAP staining based assay; assay type: functional
[5] = test system: BMMC; assay: Inhibition of osteoclastogenesis in mouse BMMC at 1 uM by TRAP staining based assay; assay type: functional
[6] = test system: BMMC; assay: Inhibition of osteoclast differentiation in mouse BMMCs assessed as reduction in Dc-stamp mRNA expression at 1.25 uM incubated for 3 days by qRT-PCR analysis; assay type: functional, cell-based; details: time 3.0 day
[7] = test system: BMMC; assay: Inhibition of osteoclast differentiation in mouse BMMCs assessed as reduction in NFATc1 protein expression at 1.25 uM incubated for 3 days by immunoblotting analysis; assay type: functional, cell-based; details: time 3.0 day
[8] = test system: BMMC; assay: Inhibition of RANKL mediated […] differentiation in mouse BMMC incubated for 4 days by TRAP staining based assay; assay type: functional, cell-based; details: dose 0.25-2 µM, time 4.0 day
[9] = test system: BMMC; assay: Inhibition RANKL-induced bone resorption in mouse BMMC at 0.625 to 2.5 uM incubated for 4 days by immunofluorescence assay; assay type: functional, cell-based; details: dose 0.625-2.5 µM, time 4.0 day
[10] = test system: BMMC; assay: Inhibition RANKL-induced F-actin ring formation in mouse BMMC at 0.625 to 2.5 uM incubated for 4 days by immunofluorescence assay; assay type: functional, cell-based; details: dose 0.625-2.5 µM, time 4.0 day
[11] = test system: BMMC; assay: Inhibition of osteoclast differentiation in mouse BMMCs assessed as reduction in Mmp9 mRNA expression at 1.25 uM incubated for 3 days by qRT-PCR analysis; assay type: functional, cell-based; details: time 3.0 day
[12] = test system: BMMC; assay: Inhibition of osteoclast differentiation in mouse BMMCs assessed as reduction in ACP5 mRNA expression at 1.25 uM incubated for 3 days by qRT-PCR analysis; assay type: functional, cell-based; details: time 3.0 day
[13] = Effect on mouse BMMCs viability at below 10 uM incubated for 48 hrs by MTT assay; assay type: toxicity, cell-based; details: bmmc
[14] = test system: BMMC; assay: Inhibition of osteoclastogenesis in mouse BMMC assessed as reduction in fusion of mononuclear osteoclast cells to form large multinucleated osteoclast cells at 0.25 to 2 uM; assay type: functional, cell-based; details: dose 0.25-2 µM
[15] = test system: BMMC; assay: Inhibition of osteoclast differentiation in mouse BMMCs assessed as reduction in […] mRNA expression at 1.25 uM incubated for 3 days by qRT-PCR analysis; assay type: functional, cell-based; details: time 3.0 day
[16] = test system: BMMC; assay: Inhibition of osteoclast differentiation in mouse BMMCs assessed as reduction in c-fos protein expression at 1.25 uM incubated for 3 days by immunoblotting analysis; assay type: functional, cell-based; details: time 3.0 day
[17] = test system: BMMC; assay: Inhibition of RANKL mediated […] differentiation in mouse BMMC at 0.25 to 2 uM incubated for 4 days by TRAP staining based assay; assay type: functional, cell-based; details: dose 0.25-2 µM, time 4.0 day
[18] = test system: Calvarial osteoblast; assay: Effect on cell viability in osteoblast cells (unknown origin) upto 4 uM incubated for 48 hrs by MTT assay; assay type: toxicity, cell-based
[19] = test system: BMMC; assay: Inhibition of osteoclast differentiation in mouse BMMCs assessed as reduction in Cathepsin K protein expression at 1.25 uM incubated for 3 days by immunoblotting analysis; assay type: functional, cell-based; details: time 3.0 day
[20] = test system: Mus musculus; assay: Inhibition of osteoclast differentiation in ovariectomized osteoporosis mouse model at 10 mg/kg, ip administered for 4 weeks; assay type: functional, organism-based
[21] = test system: BMMC; assay: Inhibition of osteoclast differentiation in mouse BMMCs assessed as reduction in Cathepsin K mRNA expression at 1.25 uM incubated for 3 days by qRT-PCR analysis; assay type: functional, cell-based; details: time 3.0 day
[22] = test system: BMMC; assay: Inhibition of osteoclast differentiation in mouse BMMCs assessed as reduction in Nfatc1 mRNA expression at 1.25 uM incubated for 3 days by qRT-PCR analysis; assay type: functional, cell-based; details: time 3.0 day

Row | logP [2] | SMILES | inhibition at 2 µM [1] [%] | IC50 [3] [nM] | inhibition at 0.5 µM [4] [%] | inhibition at 1 µM [5] [%] | also measured
1 | 3.3 | O=C(NC1CC1)c1ccc(CN2CCN(S(=O)(=O)c3cccc(Cl)c3)CC2)cc1 | 71.7 | 3030 | -49.2 | 25.2 | –
2 | 4.1 | CC(C)(C)c1ccc(S(=O)(=O)N2CCN(Cc3ccc(C(=O)NC4CC4)cc3)CC2)cc1 | 100 | 550 | 23.6 | 74.1 | –
3 | 3.5 | O=C(NC1CC1)c1ccc(CN2CCN(S(=O)(=O)c3ccc(C(F)(F)F)cc3)CC2)cc1 | 96.8 | 640 | 17.7 | 72 | inhibition [6]: Active; inhibition [7]: Active; inhibition [8]: Dose-Dependent Effect; inhibition [9]: Active; inhibition [10]: Active; inhibition [11]: Active; inhibition [12]: Active; Activity [13]: Non-Toxic; inhibition [14]: Active; inhibition [15]: Active; inhibition [16]: Active; inhibition [17]: Active; Activity [18]: Non-Toxic; inhibition [19]: Active; inhibition [20]: inactive; inhibition [21]: Active; inhibition [22]: Active
4 | 2.7 | COc1cccc(S(=O)(=O)N2CCN(Cc3ccc(C(=O)NC4CC4)cc3)CC2)c1 | -5.21 | – | -22.8 | -20.9 | –
5 | 2.6 | O=C(NC1CC1)c1ccc(CN2CCN(S(=O)(=O)c3ccc([N+](=O)[O-])cc3)CC2)cc1 | 46.7 | 1690 | 48.9 | 25.5 | –

The next lines start with the compound.

Row | SMILES | logP [2] | inhibition at 2 µM [1] [%] | IC50 [3] [nM] | inhibition at 0.5 µM [4] [%] | inhibition at 1 µM [5] [%] | also measured
6 | O=C(NC1CC1)c1ccc(CN2CCN(S(=O)(=O)c3ccc(-c4ccccc4)cc3)CC2)cc1 | 4.1 | 100 | 750 | 9.56 | 64.6 | –
7 | COc1ccc(S(=O)(=O)N2CCN(Cc3ccc(C(=O)NC4CC4)cc3)CC2)cc1 | 2.6 | 10.6 | 221000 | -9.9 | -13.8 | –
8 | CC(=O)c1ccc(S(=O)(=O)N2CCN(Cc3ccc(C(=O)NC4CC4)cc3)CC2)cc1 | 2.3 | 14.7 | 7240 | 17.6 | 16.9 | –
9 | CCCCCCCCS(=O)(=O)N1CCN(Cc2ccc(C(=O)NC3CC3)cc2)CC1 | 5.7 | 84 | 1140 | 23.9 | 33.2 | –
